“And” between values parts separate entries of the source, which are not always exact repeats. Equal values may be shown once. “Also recorded” adds a separate entry of the source. Positions of bridges follow the written chain, without caps; N, C: chain ends. Non-standard residues stand in square brackets, D forms with d. Residues, ends and D or L forms follow the SMILES beside them. *: point of attachment. X1 = CC[C@H](C)CCCCC(=O)*; Dab = NCC[C@H](N)C(=O)O
Legend:
[1] = test system: P. aeruginosa PAO1; assay: microbe, parasite or virus in culture; conditions: for MICac: the MIC for the antibiotic in the combination: S3 Table
How it was run: (§1)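 Two-fold serial dilutions in MHB received an equal volume of bacteria (suspension about 1 × 10^6 CFU/mL). Plates were held 18 h at 37 °C, then read visually for growth. Triplicate, CLSI-based.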

[2] = mice
Description: Since D-11 contains five positively charged amino acids, it is easier to bind to bacterial negatively charged membrane components.
However, we still carried out high-dose toxicity tests in mice according to the recommendations.

[3] = test system: HEK-293 cells; conditions: high concentration of D-11; cited from earlier work
Description: Interes ... || Response: This comment is valuable. […] We believe that it is a safe drug candidate.

[4] = cited from earlier work
[5] = test system: P. aeruginosa AUMC-Pa-3; assay: microbe, parasite or virus in culture; conditions: strain AUMC-Pa-3, unit not given; for MICac: MIC of the antibiotic in the combination: with D-11 at MICbc 4
How it was run: as §1

[6] = test system: P. aeruginosa AUMC-Pa-4; assay: microbe, parasite or virus in culture; conditions: strain AUMC-Pa-4, unit not given; for MICa: MIC of the antibiotic: antibiotic alone; for MICac: MIC of the antibiotic in the combination: with D-11 at MICbc 4
How it was run: as §1

[7] = test system: P. aeruginosa AUMC-Pa-5; assay: microbe, parasite or virus in culture; conditions: strain AUMC-Pa-5, unit not given; for MICa: MIC of the antibiotic: antibiotic alone; for MICac: MIC of the antibiotic in the combination: with D-11 at MICbc 4
How it was run: as §1

[8] = test system: P. aeruginosa AUMC-Pa-6; assay: microbe, parasite or virus in culture; conditions: strain AUMC-Pa-6, unit not given; for MICa: MIC of the antibiotic: antibiotic alone; for MICac: MIC of the antibiotic in the combination: with D-11 at MICbc 4
How it was run: as §1

[9] = test system: P. aeruginosa ATCC27853; assay: microbe, parasite or virus in culture; parameters: MICa: MIC of the antibiotic / MICac: MIC of the antibiotic in the combination: unit not given beside the values; conditions: strain ATCC27853; for MICa: MIC of the antibiotic: antibiotic alone; for MICa: MIC of the antibiotic / MICac: MIC of the antibiotic in the combination: unit not given; for MICac: MIC of the antibiotic in the combination: with D-11 at MICbc 4
How it was run: as §1

[10] = test system: P. aeruginosa NR-31040; assay: microbe, parasite or virus in culture; parameters: MICa: MIC of the antibiotic / MICac: MIC of the antibiotic in the combination: unit not given beside the values; conditions: strain NR-31040, unit not given; for MICa: MIC of the antibiotic: antibiotic alone; for MICac: MIC of the antibiotic in the combination: with D-11 at MICbc 4
How it was run: as §1

[11] = test system: P. aeruginosa NR-31041; assay: microbe, parasite or virus in culture; parameters: MICa: MIC of the antibiotic / MICac: MIC of the antibiotic in the combination: unit not given beside the values; conditions: strain NR-31041, unit not given; for MICa: MIC of the antibiotic: antibiotic alone; for MICac: MIC of the antibiotic in the combination: with D-11 at MICbc 4
How it was run: as §1

[12] = test system: P. aeruginosa PA14; assay: microbe, parasite or virus in culture; parameters: MICa: MIC of the antibiotic / MICac: MIC of the antibiotic in the combination: unit not given beside the values; conditions: strain PA14, unit not given; for MICa: MIC of the antibiotic: antibiotic alone; for MICac: MIC of the antibiotic in the combination: with D-11 at MICbc 4
How it was run: as §1

[13] = test system: P. aeruginosa PAK; assay: microbe, parasite or virus in culture; parameters: MICa: MIC of the antibiotic / MICac: MIC of the antibiotic in the combination: unit not given beside the values; conditions: strain PAK, unit not given; for MICa: MIC of the antibiotic: antibiotic alone; for MICac: MIC of the antibiotic in the combination: with D-11 at MICbc 4
How it was run: as §1

[14] = test system: P. aeruginosa HM-214; parameters: MICa: MIC of the antibiotic / MICac: MIC of the antibiotic in the combination: unit not given beside the values; conditions: strain HM-214, unit not given; for MICa: MIC of the antibiotic: antibiotic alone; for MICac: MIC of the antibiotic in the combination: with D-11 at MICbc 4
How it was run: as §1

[15] = test system: P. aeruginosa AUMC-Pa-1; conditions: strain AUMC-Pa-1, unit not given; for MICac: MIC of the antibiotic in the combination: with D-11 at MICbc 4
How it was run: as §1

[16] = test system: P. aeruginosa AUMC-Pa-2; conditions: strain AUMC-Pa-2, unit not given; for MICa: MIC of the antibiotic: antibiotic alone; for MICac: MIC of the antibiotic in the combination: with D-11 at MICbc 4
How it was run: as §1

[17] = test system: PAO1 in human blood; assay: Antimicrobial activity in blood (ex vivo bacteremia model); type: cell-based, Pseudomonas aeruginosa; conditions: human blood, 5×10^7 CFU/mL PAO1; antibiotic combined with D-11 (4 μM); 4 hours
Protocol: Human blood of healthy individuals was obtained from Sanquin (certified Dutch organization responsible for meeting the need in healthcare for blood and blood products, https://www.sanquin.nl/) and was infected with 5×10^7 CFU/mL of PAO1. The blood was distributed at 0.5 mL in 2 mL Eppendorf tubes and treated with the antibiotics and peptides at the indicated concentrations at 37 °C for 4 hours. The samples were decimal serially diluted in PBS. Drops of 10 μL of each dilution on LB agar to track the development of infection. The experiment was performed in triplicate.

[18] = test system: clinical P. aeruginosa isolates; assay: microbe, parasite or virus in culture
How it was run: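 Broth microdilution per CLSI in MHB, two-fold drug dilutions mixed with an equal volume of bacteria at about 1 × 10^6 CFU/mL. After 18 h at 37 °C, MIC taken as the lowest concentration with no visible growth; run in triplicate.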

| Molecule | MICac: MIC of the antibiotic in the combination [5] | MICa: MIC of the antibiotic [6] | MICac: MIC of the antibiotic in the combination [6] | MICa: MIC of the antibiotic [7] | MICac: MIC of the antibiotic in the combination [7] | MICa: MIC of the antibiotic [8] | MICac: MIC of the antibiotic in the combination [8] | MICa: MIC of the antibiotic [9] | MICac: MIC of the antibiotic in the combination [9] | MICa: MIC of the antibiotic [10] | MICac: MIC of the antibiotic in the combination [10] | MICa: MIC of the antibiotic [11] | MICac: MIC of the antibiotic in the combination [11] | MICa: MIC of the antibiotic [12] | MICac: MIC of the antibiotic in the combination [12] | MICa: MIC of the antibiotic [13] | MICac: MIC of the antibiotic in the combination [13] | MICa: MIC of the antibiotic [14] | MICac: MIC of the antibiotic in the combination [14] | MICac: MIC of the antibiotic in the combination [15] | further results |
| --- | --- | --- | --- | --- | --- | --- | --- | --- | --- | --- | --- | --- | --- | --- | --- | --- | --- | --- | --- | --- | --- |
| CC[C@@H](C)[C@@H](NC(=O)[C@H](N)CCCNC(=N)N)C(=O)N[C@@H](C(=O)N[C@H](CCC(N)=O)C(=O)N[C@H](CCCNC(=N)N)C(=O)N[C@@H](C(=O)N[C@H](CCCCN)C(=O)N[C@H](CCCCN)C(=O)N[C@H](Cc1c[nH]c2ccccc12)C(=O)N[C@H](CC(C)C)C(=O)N[C@H](CCCNC(=N)N)C(N)=O)[C@H](C)CC)C(C)C [Peptide D-11] (H-[dR][dI][dV][dQ][dR][dI][dK][dK][dW][dL][dR]-NH2) | – | – | – | – | – | – | – | – | – | – | – | – | – | – | – | – | – | – | – | – | MIC of the peptide ([1]; PAO1, 18 h): 32 µM; MICb: the MIC of D-11 ([1]; PAO1, 18 h): 32 µM; MICb: the MIC of the peptide ([1]; PAO1, 18 h): 32 µM; side effects in vivo (in words) ([2]; 10 mg/kg D-11): no obvious side effects were observed; irritation after subcutaneous injection (in words) ([2]; subcutaneous 20 mg/kg D-11): slightly irritating; toxicity to HEK-293 cells (in words) [3]: not toxic to HEK-293 cells; also recorded: no toxicity to HEK-293 cells; stability in plasma (in words) [4]: stable in plasma |
| CC[C@H](C)CCCCC(=O)N[C@@H](CCN)C(=O)N[C@H](C(=O)N[C@@H](CCN)C(=O)N[C@H]1CCNC(=O)[C@H]([C@@H](C)O)NC(=O)[C@H](CCN)NC(=O)[C@H](CCN)NC(=O)[C@H](CC(C)C)NC(=O)[C@@H](Cc2ccccc2)NC(=O)[C@H](CCN)NC1=O)[C@@H](C)O [Polymyxin B] (X1-[Dab]T[Dab][Dab][Dab][dF]L[Dab][Dab]T; lactam 4-C (inferred); N-terminus assumed) | 0.002 | 1 | 0.5 | 1 | 0.125 | 1 | 0.25 | 0.125 | 0.008 | 0.25 | 0.031 | 0.125 | 0.008 | 0.125 | 0.008 | 0.125 | 0.008 | 0.25 | 0.031 | 0.016 | MICa: MIC of the antibiotic ([5]; antibiotic alone): 0.125; MIC of polymyxin B ([1]; 1×MIC used as positive control): 0.5 µg/mL; MICa: the MIC of antibiotics ([1]; PAO1, 18 h): 0.25 µM; MICac: the MIC for the antibiotic in the combination ([1]; PAO1, with 2 μM D-11): 0.004 µM; MICac: the MIC for the antibiotic in the combination ([1]; PAO1, with 4 μM D-11): 0.001 µM; MICa: MIC of the antibiotic ([15]; antibiotic alone): 0.25; MICa: MIC of the antibiotic [16]: 0.25; MICac: MIC of the antibiotic in the combination [16]: 0.016; antibacterial effect in blood (in words) [17]: relative week antibacterial effects; Antibiotic sensibility (MIC) of clinical P. aeruginosa isolate AUMC-Pa-1 ([18]; clinical isolates, 18 h): 0.25 µM; Antibiotic sensibility (MIC) of clinical P. aeruginosa isolate AUMC-Pa-2 ([18]; clinical isolates, 18 h): 0.25 µM; Antibiotic sensibility (MIC) of clinical P. aeruginosa isolate AUMC-Pa-3 ([18]; clinical isolates, 18 h): 0.125 µM; Antibiotic sensibility (MIC) of clinical P. aeruginosa isolate AUMC-Pa-4 ([18]; clinical isolates, 18 h): 1 µM; Antibiotic sensibility (MIC) of clinical P. aeruginosa isolate AUMC-Pa-5 ([18]; clinical isolates, 18 h): 1 µM; Antibiotic sensibility (MIC) of clinical P. aeruginosa isolate AUMC-Pa-6 ([18]; clinical isolates, 18 h): 1 µM; Antibiotic sensibility (MIC) of clinical P. aeruginosa isolate HM-214 ([18]; clinical isolates, 18 h): 0.25 µM; Antibiotic sensibility (MIC) of clinical P. aeruginosa isolate NR-31040 ([18]; clinical isolates, 18 h): 0.25 µM; Antibiotic sensibility (MIC) of clinical P. aeruginosa isolate NR-31041 ([18]; clinical isolates, 18 h): 0.125 µM |
| Spiramycin | 64 | >128/>128 | >128/>128 | >128/128 | >128/128 | >128/128 | >128/128 | >128/128 | >128/128 | >128/128 | >128/128 | >128/128 | >128/128 | >128/128 | >128/128 | >128/128 | >128/128 | >128/128 | >128/128 | 64 | MIC of spiramycin alone ([1]; PAO1): higher than 128 μM; FICI ([1]; PAO1, spiramycin + D-11, 256 used for the calculation): 0.625; MICa: the MIC of antibiotics ([1]; S1 Table, macrolide alone, PAO1): >128/>128 μM and >128/128 μM; FICI ([9]; antibiotic + D-11 (MICb/MICbc 32/4)): 0.625; MICa: MIC of the antibiotic [16]: >128/128; MICac: MIC of the antibiotic in the combination [16]: >128/128; Antibiotic sensibility (MIC) of clinical P. aeruginosa isolate AUMC-Pa-1 ([18]; strain AUMC-Pa-1, antibiotic alone): >128 µM; Antibiotic sensibility (MIC) of clinical P. aeruginosa isolate AUMC-Pa-2 ([18]; strain AUMC-Pa-2, antibiotic alone): >128 µM; Antibiotic sensibility (MIC) of clinical P. aeruginosa isolate AUMC-Pa-3 ([18]; strain AUMC-Pa-3, antibiotic alone): >128 µM; Antibiotic sensibility (MIC) of clinical P. aeruginosa isolate AUMC-Pa-4 ([18]; strain AUMC-Pa-4, antibiotic alone): >128 µM; Antibiotic sensibility (MIC) of clinical P. aeruginosa isolate AUMC-Pa-5 ([18]; strain AUMC-Pa-5, antibiotic alone): >128 µM; Antibiotic sensibility (MIC) of clinical P. aeruginosa isolate AUMC-Pa-6 ([18]; strain AUMC-Pa-6, antibiotic alone): >128 µM; Antibiotic sensibility (MIC) of clinical P. aeruginosa isolate HM-214 ([18]; strain HM-214, antibiotic alone): >128 µM; Antibiotic sensibility (MIC) of clinical P. aeruginosa isolate NR-31040 ([18]; strain NR-31040, antibiotic alone): >128 µM; Antibiotic sensibility (MIC) of clinical P. aeruginosa isolate NR-31041 ([18]; strain NR-31041, antibiotic alone): >128 µM |

From paper PMC8445441, “Elucidating the mechanism by which synthetic helper peptides sensitize Pseudomonas aeruginosa to multiple antibiotics” (PLoS Pathogens, 2021)
